Measurements: US6310086A, “Indole derivatives and medicinal compositions containing the same” (Kissei Pharmaceutical Co., Ltd., priority 1998, dated 2001)
Structures can show the parent of a compound that is named as a salt. Where two headings read alike, the source gives them in different places.

Key:
[1] = Test for Rate of Hydrolysis by Endogenous Enzyme in whole blood; assay type: in vitro ADME, rat (male Wistar); conditions: for metabolised at 0.25 h: read-out: Decomposition rate, 15 minutes after; for metabolised at 1 h: read-out: Decomposition rate, 1 hour after; for metabolised at 2 h: read-out: Decomposition rate, 2 hours after
Experimental: (§1) (1 μg), and the mixture was incubated at 37° C. After 15 minutes, 30 minutes, 1 hour and 2 hours, 0.7M aqueous sodium fluoride solution (0.5 ml) as an esterase inhibitor was added to each sample to stop the reaction.
(§2) Analytical column: Inertsil ODS-3 (4.6×250 mm)
(§3) Mobile phase: acetonitrile/20 mM acetate buffer (pH 5.0)=40/60 Column temperature: 50° C.
(§4) Fluorometry: excitation wavelength 270 nm, emission wavelength 435 nm

[2] = Test for Measuring Drug Concentration in Aqueous Humor (2), after instillation of Compound C hydrochloride; assay type: in vivo, rabbit (Japanese White); conditions: rabbit eye
Experimental: To the collected aqueous humor (0.1 ml) was added internal standard [(R)-3-chloro-1-(3-hydroxypropyl)-5-[2-[[2-[2-(2,2,2-trifluoroethoxy)phenoxy]ethyl]amino]propyl]-1H-indole-7-carboxamide](10 ng), and 0.1M phosphate buffer (pH7.6) and sodium chloride (about 1 g) were added to the mixture. The resulting mixture was extracted with diethyl ether (5 ml), and the diethyl ether layer was concentrated under a stream of nitrogen.
Mobile phase: acetonitrile/0.1% phosphoric acid+2 mM sodium laurylsulfate=1/1
Fluorometry: excitation wave length 270 nm, emission wave length 435 nm

male SD rats = experiment: Acute Toxicity Test (oral); assay type: in vivo, rat (SD); conditions: 1000 mg/kg
Experimental: Male SD rats of 7 weeks age (n=5; 190-210 g in body weight) were fasted for 18 hours. (R)-3-[7-Carbamoyl-5-[2-[[2-(2-ethoxyphenoxy)ethyl]amino]propyl]-1H-indol- 1-yl]propyl pivalate hydrochloride which was suspended in 0.5% aqueous methylcellulose solution at a concentration of 100 mg/ml was orally administered to the rats at a dose of 1000 mg/kg.

α1-adrenoceptor = biological target: T1, α1-adrenoceptor (Rattus norvegicus, UniProt P43140); experiment: Test for Measuring α1-adrenoceptor Blocking Effect (inhibition of norepinephrine contraction of isolated ductus deferens); assay type: cell-based, rat (male Wistar); conditions: 10 μM norepinephrine, propranorol 1 μM and yohimbine 0.1 μM
T1 construct: Ductus deferenses (about 1.5 cm from testis side) were isolated; from tissue; host or cells: isolated ductus deferens (about 1.5 cm from testis side) of male Wistar rats, organ bath
T1 sequence (P43140 1-466): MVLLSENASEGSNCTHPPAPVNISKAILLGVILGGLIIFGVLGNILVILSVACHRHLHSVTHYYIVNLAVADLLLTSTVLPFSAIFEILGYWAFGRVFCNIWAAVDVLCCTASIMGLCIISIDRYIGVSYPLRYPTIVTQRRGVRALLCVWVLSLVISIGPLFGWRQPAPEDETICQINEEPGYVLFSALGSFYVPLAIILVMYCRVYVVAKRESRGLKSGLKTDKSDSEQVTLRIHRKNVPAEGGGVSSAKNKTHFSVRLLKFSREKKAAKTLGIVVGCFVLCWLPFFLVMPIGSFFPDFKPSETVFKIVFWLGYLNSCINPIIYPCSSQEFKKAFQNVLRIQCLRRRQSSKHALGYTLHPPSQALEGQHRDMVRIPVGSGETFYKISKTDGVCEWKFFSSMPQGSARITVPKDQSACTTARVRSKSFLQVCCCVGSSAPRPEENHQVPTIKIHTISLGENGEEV
Experimental: Ductus deferenses (about 1.5 cm from testis side) were isolated frommaleWistar rats (about 300 to 350 g in body weight). […] A solution of a mixture containing propranorol and yohimbine (final concentration: propranorol 1 μM and yohimbine 0.1 μM) was added into the Magnus bath. After 30 minutes, norepinephrine at the final concentration of 10 μM was added into the Magnus bath until the maximum contraction was obtained, and each preparation was washed. This procedure was repeated several times until the heights of contraction were stable. Each preparation was pre-treated with a solution containing the test compound before 30 minutes, and the contractile responses by treatment of 10 μM norepinephrine were measured. Contraction of each preparation without pre-treatment of the test compound was expressed as 100%.

Endogenous Enzyme = experiment: Test for Rate of Hydrolysis by Endogenous Enzyme in whole blood; assay type: in vitro ADME, rat (male Wistar); conditions: blood, 2 hours
Experimental: as §1, §2, §3, §4

[3] = Stability Test in aqueous solution; assay type: physicochemical; conditions: pH 5, decomposed into Compound A
Experimental: The test compounds were dissolved in 0. 1M acetate buffer (pH 5.0) to prepare 0.1% solutions. Each 0.1% solution was allowed to stand in the dark for 28 days at 40° C., 50° C., 60° C. and 70° C., respectively.

[4] = rat whole blood, 37° C., 1 μg in 0.5 ml
[5] = rat whole blood, 37° C., 1 μg in 0.5 ml, read-out: Decomposition rate, 30 minutes after

Compound	metabolised at 0.5 h ([1]; blood, 30 minutes)	metabolised at 0.25 h [1, 4]	metabolised at 0.5 h [1, 5]	metabolised at 1 h [1, 4]	metabolised at 2 h [1, 4]	also measured
C[C@H](Cc1cc(C(N)=O)c2c(ccn2CCCOC(=O)C(C)(C)c2ccccc2)c1)NCCOc1ccccc1OCC(F)(F)F [Compound c, (R)-3-[7-Carbamoyl-5-[2-[[2-[2-(2,2,2-trifluoroethoxy)-phenoxy]ethyl]amino]propyl]1H-indol-1-yl]propyl α,α-dimethylphenylacetate]	~2%					
CCC(CC)C(=O)OCCCn1ccc2cc(C[C@@H](C)NCCOc3ccccc3OCC(F)(F)F)cc(C(N)=O)c21 [Compound a, (R)-3-[7-Carbamoyl-5-[2-[[2-[2-(2,2,2-trifluoroethoxy)-phenoxy]ethyl]amino]propyl]-1H-indol-1-yl]propyl 2-ethyl-butyrate]	~12%					
CCOc1ccccc1OCCN[C@H](C)Cc1cc(C(N)=O)c2c(ccn2CCCOC(=O)C(C)(C)C)c1 [Compound C]						concentration at 20 min ([2]; aqueous humor, topical or ocular, 50 ug/eye, 50 μl of 0.1% Compound C hydrochloride instilled, Compounds B and C determined, read-out: Drug concentrations in aqueous humor, 20 minutes after): < 1 ng/mL; concentration at 2 h ([2]; aqueous humor, topical or ocular, 50 ug/eye, 50 μl of 0.1% Compound C hydrochloride instilled, Compounds B and C determined, read-out: Drug concentrations in aqueous humor, 2 hours after): < 1 ng/mL; concentration at 6 h ([2]; aqueous humor, topical or ocular, 50 ug/eye, 50 μl of 0.1% Compound C hydrochloride instilled, Compounds B and C determined, read-out: Drug concentrations in aqueous humor, 6 hours after): < 1 ng/mL
C[C@H](Cc1cc(C(N)=O)c2c(ccn2CCCOC(=O)C(C)(C)C)c1)NCCOc1ccccc1OCC(F)(F)F [Compound D]		54.8%	67.1%	86.5%	98.6%	
CCC(CC)C(=O)OCCCn1ccc2cc(C[C@@H](C)NCCOc3ccccc3OCC(F)(F)F)cc(C(N)=O)c21 [Compound a]		8.4%	12%	12.6%	25.2%	
CCCC(C)(C)C(=O)OCCCn1ccc2cc(C[C@@H](C)NCCOc3ccccc3OCC(F)(F)F)cc(C(N)=O)c21 [Compound b]		2.2%	3.8%	7.5%	10.2%	
CCOc1ccccc1OCCN[C@H](C)Cc1cc(C(N)=O)c2c(ccn2CCCOC(=O)C(C)(C)C)c1.Cl [Compound C hydrochloride, (R)-3-[7-Carbamoyl-5-[2-[[2-(2-ethoxyphenoxy)ethyl]amino]-propyl]-1H-indol-1-yl]propyl Pivalate Hydrochloride]						fatal rats during 24 hours after administration (male SD rats): Any fatal rats were not observed
CCC(C)(C)C(=O)OCCCn1ccc2cc(C[C@@H](C)NCCOc3ccccc3OCC(F)(F)F)cc(C(N)=O)c21 [Compound d, (R)-3-[7-Carbamoyl-5-[2-[[2-[2-(2,2,2-trifluoroethoxy)-phenoxy]ethyl]amino]propyl]-1H-indol-1-yl]propyl 2,2-Dimethylbutyrate]	~6%					
CCCC(=O)N1CCCN(c2nc(N)c3cc(OC)c(OC)cc3n2)CC1 [Bunazosin hydrochloride]						IC50 (α1-adrenoceptor): 315 nM
CCCC(C)(C)C(=O)OCCCn1ccc2cc(C[C@@H](C)NCCOc3ccccc3OCC(F)(F)F)cc(C(N)=O)c21 [Compound b, (R)-3-[7-Carbamoyl-5-[2-[[2-[2-(2,2,2-trifluoroethoxy)-phenoxy]ethyl]amino]propyl]-1H-indol-1-yl]propyl 2,2-dimethylvalerate]	~4%					
C[C@H](Cc1cc(C(N)=O)c2c(ccn2CCCOC(=O)C(C)(C)c2ccccc2)c1)NCCOc1ccccc1OCC(F)(F)F [Compound c]		0.6%	1.6%	3.2%	3.7%	
CCC(C)(C)C(=O)OCCCn1ccc2cc(C[C@@H](C)NCCOc3ccccc3OCC(F)(F)F)cc(C(N)=O)c21 [Compound d]		2.1%	5.6%	8.4%	21.7%	
CCOc1ccccc1OCCN[C@H](C)Cc1cc(C(N)=O)c2c(ccn2CCCOC(=O)C(C)(C)C)c1 [Compound C, (R)-3-[7-Carbamoyl-5-[2-[[2-(2-ethoxyphenoxy)ethyl]amino]-propyl]-1H-indol-1-yl]propyl Pivalate]						detection of the ester in aqueous humor ([2]; even after 20 minutes): could not be detected in aqueous humor at all even after 20 minutes
C[C@H](Cc1cc(C(N)=O)c2c(ccn2CCCOC(=O)C(C)(C)C)c1)NCCOc1ccccc1OCC(F)(F)F [Compound D, (R)-3-[7-Carbamoyl-5-[2-[[2-[2-(2,2,2-trifluoroethoxy)-phenoxy]ethyl]amino]propyl]-1H-indol-1-yl]propyl Pivalate]	~67%					conversion into Compound A after 2 hours (Endogenous Enzyme): almost Compound A after 2 hours; degraded ([3]; 40° C., about 1 month at 40° C.): ~0.1%; degraded ([3]; 70° C., about 1 month at 70° C.): ~1.1%
